Laboratory results from US20110206781A1, “METHOD TO MODULATE HEMATOPOIETIC STEM CELL GROWTH” (priority 2008, published 2011).

What was measured:
[1] = tested on: runx1/cmyb+ HSCs in the zebrafish AGM; assay: runx1/cmyb in situ hybridization for HSC formation in zebrafish embryos at 36 hpf; assay type: in vivo; parameters: effect on HSC formation at 36 hpf when treatment occurred before the onset of heartbeat: dose or concentration left out as unconfirmed
Description: In Situ Hybridizataion: Paraformaldehyde-fixed embryos were processed for in situ hybridization according to standard zebrafish protocols. Such protocols are available on-line through the The Zebrafish Model Organism Database. The following RNA probes were used: runx1, cmyb, flk1, ephrinB2, flt4, globin, mpo, mhc, and foxa3. Changes in expression compared to WT controls are reported as the number altered/number scored per genotype/treatment (North et al., 2007); a minimum of three independent experiments was conducted per analysis.
Chemical Exposure: Zebrafish embryos were exposed to chemicals at the doses indicated; dimethyl sulfoxide (DMSO) carrier content was 0.1%. For evaluation of HSC development, exposure ranged from early somitogenesis (5+ somites) until 36 hpf, unless otherwise noted.
(§1) Morpholino injection: Morpholino antisense oligonucleotides (MO; GENETOOLS, LLC, Philomath, Oreg.) designed against the ATG and exonl splice sites of nos1 (5′-[…] [SEQ. ID NO:1]; 5′-[…] [SEQ ID NO:2), nos2 (5′-[…] [SEQ ID NO:3]; 5′-[…] [SEQ ID NO:4]), and mismatched controls were injected into one-cell-stage embryos.

HSCs = assay: in vivo confocal imaging of HSC number in cmyb:GFP; lmo2:dsRed embryos; parameters: species or system zebrafish; conditions: lmo2:dsRed reporter fish, p<0.001, n=5
Experimental: Confocal Microscopy: Fluorescent reporter embryos were exposed to blood flow modulators (10 μM, unless otherwise noted) as indicated, live embedded in 1% agarose, and imaged with a Zeiss LSM510 Meta confocal microscope at 36 hpf (North et al., 2007) or a Perkin Elmer UltaVIEW VoX spinning disk confocal microscope.

nos1 = assay: blastula transplantation of cmyb:GFP donor cells into lmo2:dsRed recipients; assay type: in vivo, zebrafish; conditions: 36 hpf, p=0.0065
Experimental: Blastula Transplantation: cmyb: GFP embryos were injected with nos1 or control MO at the one-cell stage. At the blastula stage, 100 cells were removed from the donor embryo and transplanted into stage-matched recipients. Embryos were analyzed by confocal microscopy at 36 hpf.
as §1

## N=C(N)NCCC[C@H](N)C(=O)O [L-arg, L-arginine]
[1]; sih−/− embryos, 36 hpf
  effect on the sih hematopoietic defect (runx1/cmyb), in words: rescued the sih hematopoietic defect
[1]; wild-type embryos, 36 hpf, bradykinin 10 μM
  effect on HSCs (runx1/cmyb), in words: increased HSCs

## CC(=O)N[C@H](C(=O)O)C(C)(C)SN=O [SNAP, S-nitroso-N-acetyl-penicillamine]
[1]; exposure 10 somites-23 hpf
  effect on HSC formation at 36 hpf when treatment occurred before the onset of heartbeat: capable of enhancing HSC number
HSCs
  HSC number by confocal microscopy: increased HSC numbers

## nos1 ATG MO: morpholino antisense oligonucleotide against the ATG site of nos1, 5′-ACGCTGGGCTCTGATTCCTGCATTG, SEQ ID NO:1 (all phosphorodiamidate morpholino (PMO))
nos1
  donor cell contribution to GFP+ HSC formation in transplanted embryos: none
